What was measured:
[1] = excess molar enthalpy (molar enthalpy of mixing); xn = mol fraction of the nth substance listed; details: 303.15 K, 101 kPa, Liquid, Calvet calorimetry
[2] = xn = mol fraction of the nth substance listed; details: 101 kPa, Liquid; for viscosity: Capillary tube (Ostwald / Ubbelohde) method; for mass density: Vibrating tube method

CCOC(=O)OCC [diethyl carbonate] + CCCCCO
[1]
Details	excess molar enthalpy [kJ/mol]
x1 = 0.04842	0.383
x1 = 0.085	0.654
x1 = 0.1521	1.05
x1 = 0.2122	1.36
x1 = 0.263	1.56
x1 = 0.3154	1.75
x1 = 0.3592	1.85
x1 = 0.4399	1.99
x1 = 0.4581	2
x1 = 0.5444	2.06
x1 = 0.64	1.97
x1 = 0.6925	1.82
x1 = 0.7415	1.7
x1 = 0.7993	1.49
x1 = 0.8519	1.22
x1 = 0.9139	0.798

[2]
Details	mass density [kg/m3]	viscosity [mPa·s]
288.15 K, x1 = 0.05026	826.9	3.879
288.15 K, x1 = 0.106	836.4	3.215
288.15 K, x1 = 0.1881	850.28	2.529
288.15 K, x1 = 0.2879	866.92	1.972
288.15 K, x1 = 0.396	884.69	1.595
288.15 K, x1 = 0.4905	900.03	1.355
288.15 K, x1 = 0.5917	916.28	1.182
288.15 K, x1 = 0.7104	935.09	1.03
288.15 K, x1 = 0.8067	950.23	0.948
288.15 K, x1 = 0.896	964.17	0.898
288.15 K, x1 = 0.9607	974.25	0.871
293.15 K, x1 = 0.04854	822.8	3.391
293.15 K, x1 = 0.0572	824.25	3.292
293.15 K, x1 = 0.1071	832.6	2.796
293.15 K, x1 = 0.1988	847.85	2.138
293.15 K, x1 = 0.29	862.87	1.725
293.15 K, x1 = 0.398	880.41	1.402
293.15 K, x1 = 0.4939	895.79	1.202
293.15 K, x1 = 0.5998	912.55	1.049
293.15 K, x1 = 0.6968	927.7	0.947
293.15 K, x1 = 0.8009	943.91	0.869
293.15 K, x1 = 0.8902	957.76	0.826
293.15 K, x1 = 0.9604	968.66	0.808
303.15 K, x1 = 0.06248	817.46	2.453
303.15 K, x1 = 0.09976	823.53	2.195
303.15 K, x1 = 0.2017	839.99	1.686
303.15 K, x1 = 0.2898	854.09	1.395
303.15 K, x1 = 0.3969	871	1.159
303.15 K, x1 = 0.4922	885.91	1.013
303.15 K, x1 = 0.5941	901.64	0.893
303.15 K, x1 = 0.6987	917.65	0.808
303.15 K, x1 = 0.8039	933.63	0.75
303.15 K, x1 = 0.8997	948.13	0.715
303.15 K, x1 = 0.9608	957.42	0.703
313.15 K, x1 = 0.05411	808.37	1.951
313.15 K, x1 = 0.1042	816.28	1.705
313.15 K, x1 = 0.1939	830.39	1.373
313.15 K, x1 = 0.29	845.34	1.139
313.15 K, x1 = 0.406	863.19	0.95
313.15 K, x1 = 0.4965	876.96	0.847
313.15 K, x1 = 0.5957	891.9	0.763
313.15 K, x1 = 0.7474	914.56	0.675
313.15 K, x1 = 0.803	922.81	0.653
313.15 K, x1 = 0.8997	937.15	0.628
313.15 K, x1 = 0.9582	945.86	0.62
